{"source": "ChEMBL document CHEMBL5154884", "about": "“Discovery of a Novel Src Homology-2 Domain Containing Protein Tyrosine Phosphatase-2 (SHP2) and Cyclin-Dependent Kinase 4 (CDK4) Dual Inhibitor for the Treatment of Triple-Negative Breast Cancer” (J Med Chem, 2022)", "key": {"MDA-MB-231 [1]": {"test_system": "MDA-MB-231", "experiment": "Antiproliferative activity against human MDA-MB-231 cells assessed as inhibition of cell growth incubated for 48 hrs by MTT assay", "format": "functional, cell-based", "conditions": "Homo sapiens, MDA-MB-231, 48 h"}, "[2]": {"experiment": "Clearance in ICR mouse at 1 mg/kg, iv measured upto 24 hrs by LC-MS/MS analysis", "format": "ADME, organism-based", "conditions": "in vivo"}, "[3]": {"biological_target": "T1, Tyrosine-protein phosphatase non-receptor type 11 (Homo sapiens) (UniProt Q06124)", "T1 sequence (whole entry)": "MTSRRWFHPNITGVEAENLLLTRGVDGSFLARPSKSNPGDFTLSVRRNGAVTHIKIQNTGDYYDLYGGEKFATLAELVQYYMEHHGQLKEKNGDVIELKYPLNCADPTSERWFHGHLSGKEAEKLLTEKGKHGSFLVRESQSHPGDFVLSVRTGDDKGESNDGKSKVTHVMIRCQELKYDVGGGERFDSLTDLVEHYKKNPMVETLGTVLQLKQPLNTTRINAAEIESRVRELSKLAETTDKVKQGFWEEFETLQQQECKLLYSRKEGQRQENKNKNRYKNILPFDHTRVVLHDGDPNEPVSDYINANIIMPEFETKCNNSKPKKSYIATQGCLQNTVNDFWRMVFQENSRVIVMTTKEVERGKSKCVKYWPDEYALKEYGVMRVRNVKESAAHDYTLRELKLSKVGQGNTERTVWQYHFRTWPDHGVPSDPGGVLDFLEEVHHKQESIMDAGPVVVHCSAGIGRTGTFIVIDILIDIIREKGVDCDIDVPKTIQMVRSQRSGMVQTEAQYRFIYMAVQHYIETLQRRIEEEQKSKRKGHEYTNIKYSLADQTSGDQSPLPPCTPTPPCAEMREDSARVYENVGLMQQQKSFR", "experiment": "Inhibition of SHP2 downstream signalling in human MDA-MB-231 cells assessed as decrease in pERK1/2 protein level measured after 72 hrs by Western blot analysis", "format": "cell-based", "conditions": "dose 1.25-20 µM, DDE = dose-dependent effect"}, "[4]": {"experiment": "AUC in ICR mouse at 10 mg/kg, po measured upto 24 hrs by LC-MS/MS analysis", "format": "ADME, organism-based", "parameters": "time < 24 hrs, dose 10 mg/kg, route po", "conditions": "in vivo"}, "[5]": {"experiment": "Volume of distribution in ICR mouse at 1 mg/kg, iv measured upto 24 hrs by LC-MS/MS analysis", "format": "ADME, organism-based", "conditions": "in vivo"}, "EMT6 [6]": {"test_system": "EMT6", "experiment": "Antitumor activity against mouse EMT6 cells implanted in BALB/c mouse syngenic model assessed as increase in infiltration of CD8 positive T cells into tumors at 20 to 40 mg/kg, po qd measured after 18 days by immunohistochemical analysis", "format": "functional, organism-based", "conditions": "dose 20-40 mg/kg, time 18.0 day"}, "[7]": {"biological_target": "T2, Tyrosine-protein phosphatase non-receptor type 11 (Homo sapiens, UniProt Q06124)", "T2 sequence (Q06124 whole entry)": "T1 sequence (whole entry)", "experiment": "Inhibition of SHP2 (unknown origin) using DiFMUP as substrate incubated for 60 mins followed by substrate addition for 30 mins by microplate reader method"}, "MDA-MB-468": {"test_system": "MDA-MB-468", "experiment": "Antiproliferative activity against human MDA-MB-468 cells assessed as inhibition of cell growth incubated for 48 hrs by MTT assay", "format": "functional, cell-based", "conditions": "Homo sapiens, MDA-MB-468, 48 h"}, "CDK4/Cyclin D3": {"biological_target": "CDK4/Cyclin D3 (Homo sapiens, UniProt P11802)", "sequence (P11802 whole entry, the tested form may be a part)": "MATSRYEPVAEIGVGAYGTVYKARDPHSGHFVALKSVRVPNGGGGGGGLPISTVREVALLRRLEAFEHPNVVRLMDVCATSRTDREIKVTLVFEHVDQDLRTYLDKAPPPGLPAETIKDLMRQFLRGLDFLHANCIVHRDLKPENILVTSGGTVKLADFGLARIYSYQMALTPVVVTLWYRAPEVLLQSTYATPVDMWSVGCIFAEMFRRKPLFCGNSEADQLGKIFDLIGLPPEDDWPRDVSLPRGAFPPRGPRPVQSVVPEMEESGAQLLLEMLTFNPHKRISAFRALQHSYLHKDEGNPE", "sequence (P30281 whole entry, further chain, the tested form may be a part)": "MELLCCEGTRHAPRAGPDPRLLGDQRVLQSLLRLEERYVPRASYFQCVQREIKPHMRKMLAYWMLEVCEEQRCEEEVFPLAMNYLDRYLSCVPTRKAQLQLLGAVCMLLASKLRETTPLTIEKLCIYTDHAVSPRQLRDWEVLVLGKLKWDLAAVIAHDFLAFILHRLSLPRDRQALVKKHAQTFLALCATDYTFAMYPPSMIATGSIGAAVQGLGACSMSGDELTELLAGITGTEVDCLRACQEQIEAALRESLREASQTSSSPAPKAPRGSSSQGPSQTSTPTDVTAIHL", "experiment": "Inhibition of recombinant N-terminal GST/His6-fusion tagged human CDK4/Cyclin D3 expressed in Sf9 insect cells using 5-FAM-IPTSPITTTYFFFKKK as substrate preincubated for 10 mins followed by substrate addition and incubated for 3 hrs in presence of ATP by caliper mobility shift analysis"}, "MDA-MB-231 [8]": {"test_system": "MDA-MB-231", "experiment": "Induction of apoptosis in human MDA-MB-231 cells assessed as viable cells at 1 uM measured after 48 hrs by Annexin V-FITC/PI staining based flow cytometric analysis (reference value: 98.04%)", "format": "functional", "conditions": "read-out: Activity"}, "[9]": {"experiment": "AUC in ICR mouse at 1 mg/kg, iv measured upto 24 hrs by LC-MS/MS analysis", "format": "ADME, organism-based", "parameters": "time < 24 hrs, dose 1 mg/kg, route iv", "conditions": "in vivo"}, "MDA-MB-231 [10]": {"test_system": "MDA-MB-231", "experiment": "Upregulation of p-STAT3 protein expression in human MDA-MB-231 cells at 0.25 to 20 uM measured after 72 hrs by Western blot analysis", "format": "functional, cell-based", "conditions": "dose 0.25-20 µM"}, "[11]": {"biological_target": "Cyclin-dependent kinase 7/ cyclin H (Homo sapiens, UniProt P50613)", "sequence (P51946 whole entry)": "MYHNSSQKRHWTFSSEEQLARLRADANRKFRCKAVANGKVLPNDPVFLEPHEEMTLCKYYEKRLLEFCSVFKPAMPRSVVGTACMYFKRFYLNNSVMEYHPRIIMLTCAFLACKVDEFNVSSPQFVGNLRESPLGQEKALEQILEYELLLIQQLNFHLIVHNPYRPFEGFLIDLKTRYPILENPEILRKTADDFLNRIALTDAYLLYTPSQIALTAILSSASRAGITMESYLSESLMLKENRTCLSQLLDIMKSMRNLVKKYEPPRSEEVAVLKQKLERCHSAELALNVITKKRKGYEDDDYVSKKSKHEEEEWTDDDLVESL", "sequence (P50613 whole entry)": "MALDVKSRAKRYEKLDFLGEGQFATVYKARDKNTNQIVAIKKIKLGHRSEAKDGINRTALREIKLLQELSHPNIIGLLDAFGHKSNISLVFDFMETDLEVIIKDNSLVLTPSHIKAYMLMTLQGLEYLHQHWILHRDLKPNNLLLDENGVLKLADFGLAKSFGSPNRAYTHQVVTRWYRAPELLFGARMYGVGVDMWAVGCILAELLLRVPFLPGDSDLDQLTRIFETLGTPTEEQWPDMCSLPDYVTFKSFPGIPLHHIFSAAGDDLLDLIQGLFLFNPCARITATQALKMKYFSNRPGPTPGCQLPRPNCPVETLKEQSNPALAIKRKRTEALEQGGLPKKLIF", "experiment": "Inhibition of CDK7/Cyclin H (unknown origin) incubated for 20 mins followed by [33P]gamma-ATP addition and measured after 2 hrs by radiometric HotSpot Kinase assay", "format": "protein-complex assay"}, "[12]": {"biological_target": "Cyclin-dependent kinase 13/Cyclin-K (Homo sapiens, UniProt Q14004)", "sequence (Q14004 whole entry, the tested form may be a part)": "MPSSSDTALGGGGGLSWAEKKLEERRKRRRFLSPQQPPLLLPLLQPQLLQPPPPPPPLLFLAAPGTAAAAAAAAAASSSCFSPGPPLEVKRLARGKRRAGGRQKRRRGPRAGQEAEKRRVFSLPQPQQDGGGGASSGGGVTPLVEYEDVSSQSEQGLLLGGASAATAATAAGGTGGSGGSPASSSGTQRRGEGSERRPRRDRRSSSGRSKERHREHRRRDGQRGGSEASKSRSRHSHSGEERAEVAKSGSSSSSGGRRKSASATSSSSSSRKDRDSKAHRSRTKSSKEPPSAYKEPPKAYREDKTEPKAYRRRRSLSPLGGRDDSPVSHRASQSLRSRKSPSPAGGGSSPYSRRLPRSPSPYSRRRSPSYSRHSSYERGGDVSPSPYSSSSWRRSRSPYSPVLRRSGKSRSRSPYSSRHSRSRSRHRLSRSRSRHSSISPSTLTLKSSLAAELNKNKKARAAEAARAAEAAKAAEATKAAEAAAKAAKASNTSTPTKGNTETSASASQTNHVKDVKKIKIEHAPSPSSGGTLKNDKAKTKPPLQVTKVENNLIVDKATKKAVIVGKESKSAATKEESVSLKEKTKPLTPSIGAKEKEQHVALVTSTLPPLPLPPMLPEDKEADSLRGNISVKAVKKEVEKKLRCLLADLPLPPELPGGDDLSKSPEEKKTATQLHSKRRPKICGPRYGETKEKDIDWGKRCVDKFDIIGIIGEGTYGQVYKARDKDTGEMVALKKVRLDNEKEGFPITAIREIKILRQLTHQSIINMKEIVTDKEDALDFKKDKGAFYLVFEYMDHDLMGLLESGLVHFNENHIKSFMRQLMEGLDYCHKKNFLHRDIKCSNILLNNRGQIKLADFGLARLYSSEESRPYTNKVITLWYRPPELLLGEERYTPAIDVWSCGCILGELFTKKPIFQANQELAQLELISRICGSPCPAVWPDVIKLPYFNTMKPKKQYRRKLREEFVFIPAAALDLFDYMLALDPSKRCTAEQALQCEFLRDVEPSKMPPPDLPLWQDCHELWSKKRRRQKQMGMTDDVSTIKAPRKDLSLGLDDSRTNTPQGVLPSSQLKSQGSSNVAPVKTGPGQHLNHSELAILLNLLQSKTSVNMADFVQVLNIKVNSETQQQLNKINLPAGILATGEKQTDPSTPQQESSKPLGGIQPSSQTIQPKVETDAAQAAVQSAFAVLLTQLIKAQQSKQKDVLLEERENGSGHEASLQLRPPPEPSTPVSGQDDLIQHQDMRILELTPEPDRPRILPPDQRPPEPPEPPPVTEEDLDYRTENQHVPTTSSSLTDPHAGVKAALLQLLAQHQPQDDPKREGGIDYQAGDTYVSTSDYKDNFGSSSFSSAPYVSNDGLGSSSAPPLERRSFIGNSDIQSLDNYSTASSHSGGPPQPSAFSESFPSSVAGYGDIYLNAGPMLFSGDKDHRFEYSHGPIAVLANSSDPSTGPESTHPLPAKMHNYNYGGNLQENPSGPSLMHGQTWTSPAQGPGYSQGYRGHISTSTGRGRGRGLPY", "sequence (O75909 whole entry, further chain, the tested form may be a part)": "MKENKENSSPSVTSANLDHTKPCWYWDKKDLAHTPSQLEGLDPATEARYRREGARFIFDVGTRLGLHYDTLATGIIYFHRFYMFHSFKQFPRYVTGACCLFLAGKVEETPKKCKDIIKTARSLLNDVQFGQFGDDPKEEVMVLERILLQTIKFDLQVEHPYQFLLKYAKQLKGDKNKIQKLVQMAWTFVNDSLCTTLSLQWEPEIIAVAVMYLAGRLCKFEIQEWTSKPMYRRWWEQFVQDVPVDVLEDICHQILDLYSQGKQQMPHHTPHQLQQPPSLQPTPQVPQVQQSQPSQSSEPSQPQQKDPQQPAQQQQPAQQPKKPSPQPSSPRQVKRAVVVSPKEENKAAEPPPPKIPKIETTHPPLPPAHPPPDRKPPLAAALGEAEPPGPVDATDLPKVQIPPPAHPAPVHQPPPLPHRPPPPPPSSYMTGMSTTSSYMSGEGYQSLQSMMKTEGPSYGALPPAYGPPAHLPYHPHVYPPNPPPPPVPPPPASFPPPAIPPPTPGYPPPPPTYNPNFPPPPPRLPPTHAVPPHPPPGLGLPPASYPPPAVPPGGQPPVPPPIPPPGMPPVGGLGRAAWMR", "experiment": "Inhibition of recombinant N-terminal GST/His6-fusion tagged human CDK13/Cyclin K expressed in Sf9 insect cells incubated for 20 mins followed by [33P]gamma-ATP addition and measured after 2 hrs by radiometric HotSpot Kinase assay"}, "EMT6 [13]": {"test_system": "EMT6", "experiment": "Antiproliferative activity against mouse EMT6 cells assessed as inhibition of cell growth incubated for 48 hrs by MTT assay", "format": "functional, cell-based", "conditions": "Mus musculus, EMT6, 48 h"}, "[14]": {"biological_target": "Cyclin-dependent kinase 5/CDK5 activator 1 (Homo sapiens, UniProt Q00535)", "experiment": "Inhibition of recombinant full length N-terminal GST/His6-fusion tagged human CDK5/P25 expressed in Sf9 insect cells incubated for 20 mins followed by [33P]gamma-ATP addition and measured after 2 hrs by radiometric HotSpot Kinase assay"}, "[15]": {"experiment": "Inhibition of recombinant full length N-terminal GST/His6-fusion tagged human CDK9/Cyclin T1 expressed in Sf9 insect cells incubated for 20 mins followed by [33P]gamma-ATP addition and measured after 2 hrs by radiometric HotSpot Kinase assay"}, "CDK12/Cyclin K": {"biological_target": "CDK12/Cyclin K (Homo sapiens, UniProt Q9NYV4)", "sequence (O75909 whole entry, the tested form may be a part)": "as the sequence (O75909 whole entry, further chain, the tested form may be a part) above", "sequence (Q9NYV4 whole entry, the tested form may be a part)": "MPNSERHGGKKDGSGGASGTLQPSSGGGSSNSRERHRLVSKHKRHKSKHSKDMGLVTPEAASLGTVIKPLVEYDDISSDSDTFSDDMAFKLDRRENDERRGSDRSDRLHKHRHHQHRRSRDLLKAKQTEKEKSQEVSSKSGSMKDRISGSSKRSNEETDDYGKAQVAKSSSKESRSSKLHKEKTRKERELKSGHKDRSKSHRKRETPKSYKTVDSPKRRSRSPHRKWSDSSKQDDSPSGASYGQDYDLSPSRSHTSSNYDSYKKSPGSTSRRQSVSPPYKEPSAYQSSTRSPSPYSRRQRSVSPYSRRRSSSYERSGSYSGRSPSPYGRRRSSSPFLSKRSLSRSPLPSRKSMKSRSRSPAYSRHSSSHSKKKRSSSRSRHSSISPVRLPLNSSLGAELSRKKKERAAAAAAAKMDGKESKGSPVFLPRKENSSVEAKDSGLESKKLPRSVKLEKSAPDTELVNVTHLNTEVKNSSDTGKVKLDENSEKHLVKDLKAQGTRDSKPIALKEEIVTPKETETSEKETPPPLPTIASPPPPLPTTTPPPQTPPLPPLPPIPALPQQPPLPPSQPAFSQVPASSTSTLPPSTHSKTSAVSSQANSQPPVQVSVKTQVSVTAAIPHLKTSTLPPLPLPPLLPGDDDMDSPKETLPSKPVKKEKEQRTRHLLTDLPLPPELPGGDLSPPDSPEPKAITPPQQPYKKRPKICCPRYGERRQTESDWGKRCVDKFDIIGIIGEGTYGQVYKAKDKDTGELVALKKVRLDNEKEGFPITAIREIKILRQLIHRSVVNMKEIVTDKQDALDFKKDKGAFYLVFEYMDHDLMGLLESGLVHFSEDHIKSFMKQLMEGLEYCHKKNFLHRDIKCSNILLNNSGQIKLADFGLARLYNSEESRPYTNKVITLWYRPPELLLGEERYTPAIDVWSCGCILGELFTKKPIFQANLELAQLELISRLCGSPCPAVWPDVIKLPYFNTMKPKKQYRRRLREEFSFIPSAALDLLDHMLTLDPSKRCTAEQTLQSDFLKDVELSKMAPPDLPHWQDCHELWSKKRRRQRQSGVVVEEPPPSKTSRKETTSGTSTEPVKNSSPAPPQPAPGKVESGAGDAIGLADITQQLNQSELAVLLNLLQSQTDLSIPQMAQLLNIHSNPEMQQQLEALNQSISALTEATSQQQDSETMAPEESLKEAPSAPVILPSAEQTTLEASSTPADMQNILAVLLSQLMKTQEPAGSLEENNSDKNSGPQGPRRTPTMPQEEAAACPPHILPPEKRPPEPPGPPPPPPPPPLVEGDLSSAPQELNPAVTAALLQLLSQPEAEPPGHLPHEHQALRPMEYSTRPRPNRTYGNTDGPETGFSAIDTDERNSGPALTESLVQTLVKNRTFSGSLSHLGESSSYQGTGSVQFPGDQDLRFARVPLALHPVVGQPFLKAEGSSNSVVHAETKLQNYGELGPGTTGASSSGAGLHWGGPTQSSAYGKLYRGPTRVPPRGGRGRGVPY", "experiment": "Inhibition of recombinant N-terminal GST/His6-fusion tagged human CDK12/Cyclin K expressed in Sf9 insect cells incubated for 20 mins followed by [33P]gamma-ATP addition and measured after 2 hrs by radiometric HotSpot Kinase assay"}, "MDA-MB-231 [16]": {"test_system": "MDA-MB-231", "experiment": "Induction of cell cycle arrest in human MDA-MB-231 cells assessed as accumulation of cells in G2/M phase at 3 uM incubated for 48 hrs by RNase/propidium iodide staining based flow cytometry analysis (reference value: 2.7%)", "format": "functional"}, "MDA-MB-231 [17]": {"test_system": "MDA-MB-231", "experiment": "Induction of apoptosis in human MDA-MB-231 cells assessed as early apoptotic cells at 3 uM measured after 48 hrs by Annexin V-FITC/PI staining based flow cytometric analysis (reference value: 0.32%)", "format": "functional"}, "EMT6 [18]": {"test_system": "EMT6", "experiment": "Antitumor activity against mouse EMT6 cells implanted in BALB/c mouse syngenic model assessed as tumor growth inhibition at 40 mg/kg, po qd and measured after 18 days relative to control", "format": "functional", "conditions": "EMT6, 432 h, time 18 day, read-out: TGI"}, "CDK6/cyclin D3": {"biological_target": "CDK6/cyclin D3 (Homo sapiens, UniProt Q00534)", "experiment": "Inhibition of recombinant N-terminal GST/His6-fusion tagged human CDK6/Cyclin D3 expressed in Sf9 insect cells incubated for 20 mins followed by [33P]gamma-ATP addition and measured after 2 hrs by radiometric HotSpot Kinase assay"}, "MDA-MB-231 [19]": {"test_system": "MDA-MB-231", "experiment": "Induction of apoptosis in human MDA-MB-231 cells assessed as early apoptotic cells at 1 uM measured after 48 hrs by Annexin V-FITC/PI staining based flow cytometric analysis (reference value: 0.32%)", "format": "functional"}, "MDA-MB-231 [20]": {"test_system": "MDA-MB-231", "experiment": "Induction of apoptosis in human MDA-MB-231 cells assessed as viable cells at 3 uM measured after 48 hrs by Annexin V-FITC/PI staining based flow cytometric analysis (reference value: 98.04%)", "format": "functional", "conditions": "read-out: Activity"}}, "note": "The source made the active and inactive calls. The calls are words filed in the database; no cut-off is given here."}
{"smiles": "Cc1nc2c(F)cc(-c3nc(Nc4nccc(Sc5cnc(N6CCC7(CC6)CO[C@@H](C)[C@H]7N)cn5)c4Cl)ncc3F)cc2n1C(C)C", "values": [{"measurement": "IC50", "setting": "MDA-MB-231 [1]", "value": 5570, "unit": "nM"}, {"measurement": "clearance", "setting": "[2]", "value": 13.9, "unit": "mL/min/kg"}, {"measurement": "inhibition", "setting": "[3]", "value": "Dde"}, {"measurement": "AUC at 24 h", "setting": "[4]", "value": 5510, "unit": "ng·h/mL"}, {"measurement": "Vd", "setting": "[5]", "value": 2.53, "unit": "L/kg"}, {"measurement": "Activity", "setting": "EMT6 [6]", "value": "Active"}, {"measurement": "IC50", "setting": "[7]", "value": 4.3, "unit": "nM"}, {"measurement": "IC50", "setting": "MDA-MB-468", "value": 1760, "unit": "nM"}, {"measurement": "IC50", "setting": "CDK4/Cyclin D3", "value": 18.2, "unit": "nM"}, {"measurement": "viability at 1 µM", "setting": "MDA-MB-231 [8]", "value": 86.3, "unit": "%"}, {"measurement": "AUC at 24 h", "setting": "[9]", "value": 1200, "unit": "ng·h/mL"}, {"measurement": "Activity", "setting": "MDA-MB-231 [10]", "value": "Active"}, {"measurement": "IC50", "setting": "[11]", "value": 968, "unit": "nM"}, {"measurement": "IC50", "setting": "[12]", "value": "> 1000", "unit": "nM"}, {"measurement": "IC50", "setting": "EMT6 [13]", "value": 640, "unit": "nM"}, {"measurement": "IC50", "setting": "[14]", "value": 540, "unit": "nM"}, {"measurement": "IC50", "setting": "[15]", "value": 26.4, "unit": "nM"}, {"measurement": "IC50", "setting": "CDK12/Cyclin K", "value": 697, "unit": "nM"}, {"measurement": "Activity", "setting": "MDA-MB-231 [16]", "value": 1.5, "unit": "%"}, {"measurement": "Activity", "setting": "MDA-MB-231 [17]", "value": 9.46, "unit": "%"}, {"measurement": "inhibition in vivo at 40 mg/kg", "setting": "EMT6 [18]", "value": 80, "unit": "%"}, {"measurement": "IC50", "setting": "CDK6/cyclin D3", "value": 634, "unit": "nM"}, {"measurement": "Activity", "setting": "MDA-MB-231 [19]", "value": 7.29, "unit": "%"}, {"measurement": "viability at 3 µM", "setting": "MDA-MB-231 [20]", "value": 82, "unit": "%"}]}
